From PMC8098682 (Chemical Science, 2021)

Target: T1, isocitrate lyase (ICL) (Salmonella enterica, UniProt P51066)
T1 sequence (P51066 1-434): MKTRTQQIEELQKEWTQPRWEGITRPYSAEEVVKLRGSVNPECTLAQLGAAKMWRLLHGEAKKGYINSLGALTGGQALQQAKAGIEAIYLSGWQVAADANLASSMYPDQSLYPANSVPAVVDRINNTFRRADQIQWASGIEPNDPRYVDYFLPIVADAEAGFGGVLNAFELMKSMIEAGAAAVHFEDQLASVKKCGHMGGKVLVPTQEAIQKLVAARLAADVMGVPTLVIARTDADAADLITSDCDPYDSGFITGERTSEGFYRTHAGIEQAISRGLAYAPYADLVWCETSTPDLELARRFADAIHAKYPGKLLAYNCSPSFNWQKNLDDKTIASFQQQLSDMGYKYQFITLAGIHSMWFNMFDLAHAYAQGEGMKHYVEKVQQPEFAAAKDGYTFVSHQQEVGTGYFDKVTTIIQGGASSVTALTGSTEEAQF
Assay: enzyme activity assay of purified ICL
Assay type: biochemical

SMILES: C=C(CC(=O)O)C(=O)O [ITA, itaconate]
- IC50: ~2600 µM
